Measured values as given in ChEMBL document CHEMBL3797052 (Eur J Med Chem, 2016).

Assays:
K562 [1] = experiment: Antiproliferative activity against human K562 cells assessed as cell growth at 10^-7 M after 48 hrs by sulforhodamine B assay; type: functional; conditions: K562, 48 h, read-out: Activity
NCI-H23 = experiment: Antiproliferative activity against human NCI-H23 cells assessed as cell growth at 10^-6 M after 48 hrs by sulforhodamine B assay; type: functional; conditions: NCI-H23, 48 h, read-out: Activity
[2] = Antiproliferative activity against human HOP62 cells assessed as cell growth at 10^-4 M after 48 hrs by sulforhodamine B assay; type: functional; conditions: HOP-62, 48 h, read-out: Activity
CYP2D6 = CYP2D6 (Homo sapiens, UniProt P10635); experiment: Inhibition of recombinant human CYP2D6 assessed as remaining enzyme activity using CYP2D6 blue as substrate at 10 uM after 5 mins in presence of NADP by fluorescence plate reader analysis; type: ADME; conditions: recombinant human CYP2D6, probe CYP2D6 blue, read-out: Activity
Sequence of CYP2D6 (P10635 whole entry): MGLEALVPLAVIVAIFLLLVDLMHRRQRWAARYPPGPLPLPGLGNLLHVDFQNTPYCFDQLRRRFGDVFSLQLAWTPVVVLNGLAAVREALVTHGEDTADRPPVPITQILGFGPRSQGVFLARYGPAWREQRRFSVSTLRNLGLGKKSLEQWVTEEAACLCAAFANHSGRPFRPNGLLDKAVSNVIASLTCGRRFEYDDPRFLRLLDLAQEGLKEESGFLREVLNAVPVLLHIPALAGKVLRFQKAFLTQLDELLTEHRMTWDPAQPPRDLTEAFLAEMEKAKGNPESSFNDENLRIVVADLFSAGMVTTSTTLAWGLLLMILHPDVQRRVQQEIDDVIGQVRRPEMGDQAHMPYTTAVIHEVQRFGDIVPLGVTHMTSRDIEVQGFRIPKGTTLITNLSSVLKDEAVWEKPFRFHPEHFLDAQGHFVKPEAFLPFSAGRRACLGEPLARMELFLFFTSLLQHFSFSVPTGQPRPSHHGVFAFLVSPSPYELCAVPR

[3] = Antiproliferative activity against human UACC257 cells assessed as cell growth at 10^-7 M after 48 hrs by sulforhodamine B assay; type: functional; conditions: UACC-257, 48 h, read-out: Activity
SK-MEL-28 = experiment: Antiproliferative activity against human SK-MEL-28 cells assessed as cell growth at 10^-7 M after 48 hrs by sulforhodamine B assay; type: functional; conditions: SK-MEL-28, 48 h, read-out: Activity
[4] = Antiproliferative activity against human COLO205 cells assessed as cell growth at 10^-8 M after 48 hrs by sulforhodamine B assay; type: functional; conditions: COLO 205, 48 h, read-out: Activity
KM12 = experiment: Antiproliferative activity against human KM12 cells assessed as cell growth at 10^-4 M after 48 hrs by sulforhodamine B assay; type: functional; conditions: KM12, 48 h, read-out: Activity
MDA-MB-435 = experiment: Antiproliferative activity against human MDA-MB-435 cells assessed as cell growth at 10^-7 M after 48 hrs by sulforhodamine B assay; type: functional; conditions: MDA-MB-435, 48 h, read-out: Activity
K562 [5] = experiment: Antiproliferative activity against human K562 cells assessed as cell growth at 10^-8 M after 48 hrs by sulforhodamine B assay; type: functional; conditions: K562, 48 h, read-out: Activity
[6] = Antiproliferative activity against human OVCAR3 cells assessed as cell growth at 10^-8 M after 48 hrs by sulforhodamine B assay; type: functional; conditions: OVCAR-3, 48 h, read-out: Activity
EKVX = experiment: Antiproliferative activity against human EKVX cells assessed as cell growth at 10^-6 M after 48 hrs by sulforhodamine B assay; type: functional; conditions: read-out: Activity
SK-MEL-5 = experiment: Antiproliferative activity against human SK-MEL-5 cells assessed as cell growth at 10^-6 M after 48 hrs by sulforhodamine B assay; type: functional; conditions: SK-MEL-5, 48 h, read-out: Activity
[7] = Antiproliferative activity against human SNB19 cells assessed as cell growth at 10^-6 M after 48 hrs by sulforhodamine B assay; type: functional; conditions: SNB-19, 48 h, read-out: Activity
[8] = Antiproliferative activity against human HL-60(TB) cells assessed as cell growth at 10^-7 M after 48 hrs by sulforhodamine B assay; type: functional; conditions: HL-60, 48 h, read-out: Activity
CYP1A2 = molecular target: T1, CYP1A2 (Homo sapiens, UniProt P05177); experiment: Inhibition of recombinant human CYP1A2 assessed as remaining enzyme activity using CYP1A2 blue as substrate at 10 uM after 5 mins in presence of NADP by fluorescence plate reader analysis; type: ADME; conditions: recombinant human CYP1A2, probe CYP1A2 blue, read-out: Activity
T1 sequence (P05177 whole entry): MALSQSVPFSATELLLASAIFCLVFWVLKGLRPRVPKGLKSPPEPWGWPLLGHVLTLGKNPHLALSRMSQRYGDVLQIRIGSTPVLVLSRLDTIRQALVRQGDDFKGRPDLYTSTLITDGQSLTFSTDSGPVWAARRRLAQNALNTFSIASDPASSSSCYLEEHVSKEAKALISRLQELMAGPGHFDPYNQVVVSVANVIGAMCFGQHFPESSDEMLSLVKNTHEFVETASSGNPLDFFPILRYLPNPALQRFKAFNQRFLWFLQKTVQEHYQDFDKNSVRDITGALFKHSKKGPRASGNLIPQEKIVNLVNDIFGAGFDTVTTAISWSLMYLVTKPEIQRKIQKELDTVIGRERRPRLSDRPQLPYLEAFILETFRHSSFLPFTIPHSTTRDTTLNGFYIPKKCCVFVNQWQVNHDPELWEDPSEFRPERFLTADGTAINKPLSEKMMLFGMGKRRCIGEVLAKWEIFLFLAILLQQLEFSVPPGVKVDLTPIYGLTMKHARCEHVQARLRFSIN

[9] = Antiproliferative activity against human OVCAR4 cells assessed as growth inhibition after 48 hrs by sulforhodamine B assay; type: functional; conditions: OVCAR-4, 48 h
ACHN = experiment: Antiproliferative activity against human ACHN cells assessed as growth inhibition after 48 hrs by sulforhodamine B assay; type: functional
[10] = Antiproliferative activity against human SF539 cells assessed as growth inhibition after 48 hrs by sulforhodamine B assay; type: functional; conditions: SF-539, 48 h
786-0 = experiment: Antiproliferative activity against human 786-0 cells assessed as cell growth at […] after 48 hrs by sulforhodamine B assay; type: functional; conditions: 786-0, 48 h, read-out: Activity
[11] = Antiproliferative activity against human TK10 cells assessed as cell growth at 10^-6 M after 48 hrs by sulforhodamine B assay; type: functional; conditions: TK-10, 48 h, read-out: Activity
[12] = Antiproliferative activity against human SW620 cells assessed as cell growth at 10^-6 M after 48 hrs by sulforhodamine B assay; type: functional; conditions: SW-620, 48 h, read-out: Activity
[13] = Antiproliferative activity against human HOP92 cells assessed as cell growth at 10^-4 M after 48 hrs by sulforhodamine B assay; type: functional; conditions: HOP-92, 48 h, read-out: Activity
[14] = Antiproliferative activity against human LOXIMVI cells assessed as cell growth at 10^-6 M after 48 hrs by sulforhodamine B assay; type: functional; conditions: LOX IMVI, read-out: Activity
NCI-H322M = experiment: Antiproliferative activity against human NCI-H322M cells assessed as cell growth at 10^-7 M after 48 hrs by sulforhodamine B assay; type: functional; conditions: read-out: Activity
[15] = Antiproliferative activity against human SKOV3 cells assessed as growth inhibition after 48 hrs by sulforhodamine B assay; type: functional; conditions: SK-OV-3, 48 h
[16] = Antiproliferative activity against human COLO205 cells assessed as cell growth at 10^-6 M after 48 hrs by sulforhodamine B assay; type: functional; conditions: COLO 205, 48 h, read-out: Activity
[17] = Antiproliferative activity against human COLO205 cells assessed as cell growth at 10^-7 M after 48 hrs by sulforhodamine B assay; type: functional; conditions: COLO 205, 48 h, read-out: Activity
[18] = Antiproliferative activity against human OVCAR4 cells assessed as cell growth at 10^-6 M after 48 hrs by sulforhodamine B assay; type: functional; conditions: OVCAR-4, 48 h, read-out: Activity
[19] = read-out: LC50 (the source's name)

CNC(=O)c1cc(Oc2ccc3nc(NC(=O)Nc4ccc(Cl)c(Cl)c4)sc3c2)ccn1
growth at 0.1 µM (K562 [1]): 98% | growth at 1 µM (NCI-H23): 88% | growth at 100 µM [2]: -85% | activity at 5 min, 10 µM (CYP2D6): 96.4% | growth at 0.1 µM [3]: 92% | growth at 0.1 µM (SK-MEL-28): 100% | growth at 0.01 µM [4]: 102% | growth at 100 µM (KM12): 6% | growth at 0.1 µM (MDA-MB-435): 95% | growth at 0.01 µM (K562 [5]): 99% | growth at 0.01 µM [6]: 101% | growth at 1 µM (EKVX): 86% | growth at 1 µM (SK-MEL-5): 94% | growth at 1 µM [7]: 100% | growth at 0.1 µM [8]: 102% | activity at 5 min, 10 µM (CYP1A2): 104% | GI50 [9]: 2.06 µM | TGI [9]: 4.03 µM | CC50 [9, 19]: 7.89 µM | GI50 (ACHN): 2.1 µM | LC50 (ACHN): > 100 µM | TGI (ACHN): 5.56 µM | GI50 [10]: 2.17 µM | LC50 [10]: 11.1 µM | TGI [10]: 4.69 µM | growth at 100 µM (786-0): -67% | growth at 1 µM [11]: 113% | growth at 1 µM [12]: 128% | growth at 100 µM [13]: -66% | growth at 1 µM [14]: 95% | growth at 0.1 µM (NCI-H322M): 87% | GI50 [15]: 2.24 µM | TGI [15]: 4.09 µM | CC50 [15, 19]: 7.45 µM | growth at 1 µM [16]: 106% | growth at 0.1 µM [17]: 105% | growth at 1 µM [18]: 104%
